Patent US10765616B2, “Oral formulation of polyglucosamine derivatives in combination with a non-fermentable sugar” (SYNEDGEN, INC., priority 2013, dated 2020)

Legend:
S. mutans biofilms [1] = assay: Comparative biofilm reduction study of oral rinses and active ingredients (MBEC pegs); assay type: cell-based, Streptococcus mutans; conditions: 72 h S. mutans biofilms, treated 2 minutes twice (6-hour interval), vs water control
Method: Biofilms of S. mutans were grown on hydroxyapatite-coated pegs according to MBEC Assay™ methods for 72 hours, and then treated with the oral rinses or a water control. The corresponding active ingredients were also evaluated. The biofilms were exposed for 2-minutes, twice in a 6-hour interval to evaluate biofilm removal. Following treatment, biofilms were rinsed, fixed, and stained with 0.4% Crystal Violet, and remaining biofilm was quantitated via CFU or OD595 (Beenken and Smeltzer, 2003). Biofilms were analyzed in triplicate in at least 3 independent assays. Ratios were averaged from all assays and the percent biofilm reduced and standard error compared to water control is shown.

S. mutans biofilms [2] = assay: MBEC peg biofilm biomass reduction assay of active ingredients (twice daily, OD595); assay type: cell-based, Streptococcus mutans; conditions: 2 minutes, 8-hour interval, 32 μg/mL PAAG, 1.5% hydrogen peroxide, alcohol, lactoferrin, chlorhexidine
Method: The S. mutans biofilms were grown according to MBEC™ for High-throughput Screening methods (Innovotech) on a hydroxyapatite-coated peg lid placed in trough containing BHI media supplemented with 1% sucrose rocking for 72 hours. The pegs were treated twice daily with PAAG (30% functionalized, 86 kD) active ingredients (FIG. 9) at 8-hour intervals for 2-minutes. The biofilms were rinsed in PBS, and the pegs were removed and placed into 200 μl 95% ethanol each for 2 minutes to fix the biofilms. The MBEC-HTP biofilms were stained with 150 μl of 3% Crystal Violet dye each for 2 minutes, and rinsed five times with PBS. It was noted that chlorhexidine appears to “fix” the biofilm to the pegs. The bacteria may or may not be viable because OD measured biofilm biomass, not viable CFUs. The stained and rinsed MBEC-HTP biofilms were then placed in 150 μL ethanol for 1-minute to remove the dye/biofilm. Then 100 μL of the ethanol and dyed biofilm suspension was placed into a 96-well plate and the OD595 was measured to quantify the remaining stained biofilm biomass.

S. mutans = assay: PAAG and sorbitol combination bactericidal assay (viable plate counts); assay type: cell-based, Streptococcus mutans; conditions: sorbitol 0-25% w/v, 30 minutes
Method: A range of sorbitol concentrations (0-25% w/v) was mixed with a range of PAAG concentrations (4-32 μg/mL, 86 kDa, 30% functionalized). S. mutans was exposed to each for 30 minutes before being neutralized with D/E neutralization broth, then diluted and plated for measurement of viable plate counts (CFU).

A431 epithelial cells = test system: A431 epithelial cells
Method: Human epithelial cell monolayers of A431 (ATCC CRL-1555) were seeded in tissue culture treated 96-well plates at a density of 2×10^4 cells/well in DMEM media supplemented with 10% FBS, 1% Penicillin-Streptomycin, and 1% Amphotericin B. Seeded cells were incubated at 37° C. with 5% CO2 for 48 hours. The media was removed and replaced with serum-free, antimicrobial-free media and rinsed one time for 30 seconds with PAAG Oral Formulation H, other oral products (Biotene, Corsodyl, Peroxyl, or Listerine), 32 μg/mL PAAG (30% functionalized, 86 kDa) and other active ingredients (0.029% lactoferrin, 0.2% chlorhexidine gluconate, 1.5% hydrogen peroxide, or 20% alcohol). Epithelial cell viability was determined by ATPLite Luminescence ATP Detection Assay System (PerkinElmer). Testing was done in duplicate.
Epithelial cell viability was compared between PAAG and other oral active ingredients and oral rinse products. Human epithelial cell monolayers were rinsed once for 30 seconds with each treatment. Following treatment, the epithelial cells were evaluated with ATP LITE Luminecence assay that measured viability via ATP. The data was normalized to untreated cells to compare percent survival (FIG. 4). […] The cells were rinsed once with PAAG Oral Formulation H, other oral rinse products (Biotene, Corsodyl, Peroxyl, or Listerine), oral products active ingredients (0.0032% PAAG, 0.029% lactoferrin (LF), 0.2% chlorhexidine (CHG), 1.5% hydrogen peroxide, or 20% alcohol). PAAG Oral Formulation H contains sorbitol (17.5%), glycerin (10%), xylitol (2.5%), polysorbate 20 (1.5%), peppermint oil (0.2%), benzoic acid (0.3%), sodium fluoride (0.5%), and PAAG (0.0032%). Epithelial cell viability was determined by ATPLite Luminescence ATP Detection Assay System (Perkin Elmer) and compared to media rinsed cells.

[3] = active ingredients at the concentration printed in the row or sentence

| Molecule | Percent (%) Biomass Reduced (S. mutans biofilms [1]; [3]) | reduction in S. mutans biofilm biomass compared to water control (S. mutans biofilms [2]) | epithelial cell viability (A431 epithelial cells) | also measured |
| --- | --- | --- | --- | --- |
| [H]/N=C(\N/C(=N/[H])NCCCCCCNC(=N)NC(=N)Nc1ccc(Cl)cc1)Nc1ccc(Cl)cc1 [Chlorhexidine, chlorhexidine gluconate] | 17.1 ± 4.5% | did not significantly reduce |  | Percent (%) Biomass Reduced (S. mutans biofilms [1]; active ingredients at the concentration printed in the row or sentence, listed as Chlorhexidine gluconate): 17.1±4.5% |
| OC[C@@H](O)[C@@H](O)[C@H](O)[C@@H](O)CO [sorbitol] |  |  |  | effect of sorbitol alone on bacterial viability (S. mutans): did not affect bacterial viability |
| OO [hydrogen peroxide] | 36.9±3.8% | significant reduction | maintain epithelial cell viability | Percent (%) Biomass Reduced (S. mutans biofilms [1]; active ingredients at the concentration given, listed as H2O2): 36.9 ± 3.8% |
| poly (acetyl, arginyl) glucosamine [PAAG] |  |  | maintain epithelial cell viability | cytotoxicity to epithelial cells compared to other oral rinse products (A431 epithelial cells): least cytotoxic |
| CCO [Alcohol, alcohol] | 39.9 ± 3.9% | significant reduction |  | Percent (%) Biomass Reduced (S. mutans biofilms [1]; active ingredients at the concentration printed in the row or sentence, listed as alcohol): 39.9±3.9% |
